Test results from patent USRE45340E1, “Lentil plants having increased resistance to imidazolinone herbicides” (University of Saskatchewan, priority 2001, dated 2015).

Experiments:
transgenic rice = settings: cited from earlier work
AHAS [1] = test: Inhibition of AHAS activity in wild type CDC Richlea lentil by imidazolinone herbicides; type: biochemical, lentil (Lens culinaris); settings: wild type CDC Richlea lentil variety; increasing herbicide concentrations (FIG. 4, FIG. 5)
Excerpt: (§1) FIG. 4 is a graph showing the inhibition of AHAS activity in RH44 and CDC Richlea lentil plants by increasing concentrations of imazapic.
(§2) FIG. 5 is a graph showing the inhibition of AHAS activity in RH44 and CDC Richlea lentil plants by increasing concentrations of imazethapyr.
(§3) The AHAS activity in the wild type CDC Richlea lentil variety was inhibited by imazapic (CADRE®)) (FIG. 4) and imazethapyr (PURSUIT®) (FIG. 5) representative of all imidazolinone herbicides.

AHAS [2] = test: Inhibition of AHAS activity in RH44 lentil by imidazolinone herbicides; type: biochemical, lentil (Lens culinaris); settings: RH44 lentil variety, compared with wild type CDC Richlea (FIG. 4, FIG. 5)
Excerpt: as §1, §2, §3
It is therefore likely that the gene primarily responsible for AHAS activity in the RH44 lentil has undergone a point mutation similar to that observed in corn, wheat and canola. This has made the isozyme coded for by this sequence resistant to imidazolinone inhibition. The wild type isozyme has no such mutation and therefore is susceptible to imidazolinone herbicide. Such a scenario would explain why AHAS activity drops 30 to 40% with the addition of maximum concentrations of imidazolinone herbicides.

AHAS [3] = test: Negative feedback inhibition assay of AHAS activity; type: biochemical, RH44 lentil and CDC Richlea lentil varieties; settings: leucine and valine addition (FIG. 3)
Excerpt: FIG. 3 is a graph showing the inhibition of AHAS activity in RH44 and CDC Richlea lentil plants by a negative feedback inhibition assay.
The responses of the RH44 lentil variety and the CDC Richlea variety were identical in a negative feedback inhibition assay. As described earlier, AHAS is an enzyme active in the biosynthesis of leucine and valine. Under conditions of excess leucine and/or valine, the activity of AHAS is diminished. The ability of leucine and valine addition to inhibit AHAS activity was the same in the RH44 lentil and CDC Richlea lentil varieties, indicating very similar levels of expression and a lack of any discernible difference in AHAS function (FIG. 3).

SMILES | inhibition of AHAS activity (AHAS [1]) | inhibition of AHAS activity (AHAS [2]) | ability to inhibit AHAS activity, RH44 versus CDC Richlea (AHAS [3]) | further results
COc1nc(C)nc(NC(=O)NS(=O)(=O)c2ccccc2Cl)n1 [chlorsulfuron] |  |  |  | differences in in vitro resistance (transgenic rice; Arabidopsis ALS promoter replaced with the CaMV35S promoter): 40 fold; increase in in vitro resistance (transgenic rice; transgenic rice containing a 35S/ALS transgene): 200 fold
Cc1cnc(C2=NC(=O)C(C)(C(C)C)N2)c(C(=O)O)c1 (centres unmarked) [imazapic] | inhibited | not to the same extent as for the wild type lentil CDC Richlea |  | 
CCc1cnc(C2=NC(C)(C(C)C)C(=O)N2)c(C(=O)O)c1 (centres unmarked) [imazethapyr] | inhibited | not to the same extent as for the wild type lentil CDC Richlea |  | 
CC(C)C[C@H](N)C(=O)O [leucine] |  |  | the same | 
CC(C)[C@H](N)C(=O)O [valine] |  |  | the same | 
